According to US20090156594A1, “HETEROCYCLIC KINASE MODULATORS” (SGX Pharmaceuticals, Inc., priority 2007, published 2009):

Tests used:
[1] = target: T1, c-MET (Homo sapiens, UniProt P08581); test: MET luminescence-based enzyme assay (Kinase-Glo); type: biochemical; conditions: MET kinase domain, 10 μM ATP, 60 min at 21° C.
T1 construct: expressing the kinase domain of human Met; 6x Histidine tag (TEV-cleavable) (cleaved yes); made in house; host or cells: Sf9 insect cells
Description: Screening data was evaluated using the equation: Z′=1-[3*(σ++σ−)/|μ+−μ−|] […] The subscript designates positive or negative controls. The Z′ score for a robust screening assay should be ≧0.50. The typical threshold=μ+−3*σ+. Any value that falls below the threshold was designated a “hit”.
MET Luminescence-Based Enzyme Assay
MET kinase (see below), Kinase-Glom (Promega Cat#V6712).
(diluted 50 μl into total of 10 ml miliQH2O daily=50 μM ATP working stock); 1% BSA (1 g BSA in 100 ml 0.1M HEPES, pH 7.5, stored at −20° C.), 100 mM MgCl2; 200 μM Staurosporine, 2× Kinase-Glo™ reagent (made fresh or stored at −20° C.).
Standard Assay Setup for 384-well format (20 μl kinase reaction, 40 μl detection reaction): 10 mM MgCl2; 0.3 mg/mil poly Glu-Tyr; 0.1% BSA; 1 μl test compound (in DMSO); 0.4 μg/ml MET kinase; 10 μM ATP; 100 mM HEPES buffer. Positive controls contained DMSO with no test compound. Negative controls contained […] staurosporine. The kinase reactions were initiated at time t=0 by the addition of ATP. Kinase reactions were incubated at 21° C. for 60 min, then 20 μl of Kinase-Glo™ reagent were added to each well to quench the kinase reaction and initiate the luminescence reaction. After a 20 min incubation at 21° C., the luminescence was detected in a plate-reading luminometer.
The cell pellets produced from half of a 12 L Sf9 insect cell culture expressing the kinase domain of human Met were resuspended in a buffer containing 50 mM Tris-HCl pH 7.7 and 250 mM NaCl, in a volume of approximately 40 ml per 1 L of original culture. […] The suspension was stirred for 1 hour at 4° C. Debris was removed by centrifugation for 30 minutes at 39,800×g at 4° C. […] The sample was then poured into a drip column at 4° C. and washed with 10 column volumes of 50 mM Tris-HCl pH 7.8, 500 mM NaCl, 10% Glycerol, […], and 10 mM Methionine. The protein was eluted using a step gradient with two column volumes each of the same buffer containing 50 mM, 200 mM, and 500 mM Imidazole, sequentially. […] The step gradient was run with 15% and then 80% of the B-side (A-side=50 mM Tris-HCl pH 7.8, 500 mM NaCl, 10% Glycerol, 10 mM Imidazole, and 10 mM Methionine; B-side=50 mM Tris-HCl pH 7.8, […], 10% Glycerol, 500 mM Imidazole, and 10 mM Methionine) for 4 column volumes each.

[2] = tested on: GTL16 cells; test: 96-well XTT cell survival assay (GTL16 cells); type: cell-based; conditions: Homo sapiens, GTL 16, 72 hours
Description: GTL16 cells were maintained in DMEM Medium supplemented with 10% fetal bovine serum (FBS) 2 mM L-Glutamine and 100 units penicillin/100 μg streptomycin, at 37° C. in 5% CO2.
Compounds were Tested in the Following Assays in Duplicate.
96-well XTT assay (GTL16 cells): One day prior to assay the growth media was aspirated off and assay media was added to cells. On the day of the assay, the cells were grown in assay media containing various concentrations of compounds (duplicates) on a 96-well flat bottom plate for 72 hours at 37° C. in 5% CO2. The starting cell number was 5000 cells per well and volume was 120 μl. At the end of the 72-hour incubation, 40 μl of XTT labeling mixture (50:1 solution of sodium 3′-[1-(phenylaminocarbonyl)-3,4-tetrazolium]-bis(4-methoxy-6-nitro) benzene sulfonic acid hydrate and Electron-coupling reagent: PMS (N-methyl dibenzopyrazine methyl sulfate) were added to each well of the plate. After an additional 5 hours of incubation at 37° C., the absorbance reading at 450 nm with a background correction of 650 nm was measured with a spectrophotometer.

T1 sequence (P08581 1078-1345 limits assumed): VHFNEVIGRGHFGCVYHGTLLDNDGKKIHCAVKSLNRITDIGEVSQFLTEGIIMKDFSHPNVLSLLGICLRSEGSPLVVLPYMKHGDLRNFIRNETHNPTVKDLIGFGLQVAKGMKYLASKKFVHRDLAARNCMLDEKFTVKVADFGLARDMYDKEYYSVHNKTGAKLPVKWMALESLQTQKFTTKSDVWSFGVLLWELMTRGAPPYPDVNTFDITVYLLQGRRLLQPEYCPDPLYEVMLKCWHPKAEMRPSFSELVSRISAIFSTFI

Row | SMILES | IC50 [1] | IC50 [2]
1 | c1ccc(-c2nn3c(Cc4ccc5ncccc5c4)nnc3s2)cc1 | < 100 nM | 1000 to 10000 nM
2 | Cn1cc(-c2nn3c(Cc4cc5cccnc5cc4F)nnc3s2)cn1 | < 100 nM | ≤ 100 nM
3 | Cn1cc(-c2nn3c(Cc4c(F)cc5ncccc5c4F)nnc3s2)cn1 | < 100 nM | ≤ 100 nM
4 | Fc1cc2ncccc2cc1Cc1nnc2sc(C(F)(F)F)nn12 | 1000 to 10000 nM | 
5 | c1ccc(-c2cn3c(Sc4ccc5ncccc5c4)nnc3s2)cc1 | 100 to 1000 nM | 1000 to 10000 nM
6 | Cc1nn2c(Cc3cc4cccnc4cc3F)nnc2s1 | 100 to 1000 nM | 100 to 1000 nM
7 | Fc1cc2ncccc2cc1Cc1nnc2sc(-c3ncc[nH]3)nn12 | 100 to 1000 nM | 1000 to 10000 nM
8 | Cc1nn2c(Cc3ccc4ncc(-c5cnn(C)c5)cc4c3)nnc2s1 | < 100 nM | ≤ 100 nM
9 | Cc1nn2c(Sc3ccc4ncccc4c3)nnc2s1 | 100 to 1000 nM | 
10 | Cn1cc(-c2cnc3ccc(Cc4nnc5sc(CNCC6CC6)nn45)cc3c2)cn1 | < 100 nM | ≤ 100 nM
11 | Cc1nn2c(Cc3ccc4ncc(-c5cnn(C)c5)cc4c3F)nnc2s1 | < 100 nM | ≤ 100 nM
12 | Cc1nn2c(Cc3c(F)cc4ncc(Br)cc4c3F)nnc2s1 | 100 to 1000 nM | 100 to 1000 nM
13 | Cc1nn2c(Sc3ccc4ncc(-c5cnn(C)c5)cc4c3)nnc2s1 | < 100 nM | ≤ 100 nM
14 | Cn1cc(-c2cnc3ccc(Cc4nnc5sc([C@@H](N)CC6CCCCC6)nn45)cc3c2)cn1 | 100 to 1000 nM | 
15 | C[C@H](N)c1nn2c(Cc3ccc4ncc(-c5cnn(C)c5)cc4c3)nnc2s1 | 100 to 1000 nM | 
16 | Cn1cc(-c2cnc3ccc(Cc4nnc5sc(C6CC6)nn45)cc3c2)cn1 | < 100 nM | ≤ 100 nM
17 | Cn1cc(-c2cnc3ccc(Cc4nnc5sc([C@@H]6CCCN6)nn45)cc3c2)cn1 | 100 to 1000 nM | 
18 | Cn1cc(-c2cnc3ccc(Cc4nnc5sc(CNCCF)nn45)cc3c2)cn1 | < 100 nM | ≤ 100 nM
19 | Cn1cc(-c2cnc3ccc(Cc4nnc5sc(CNCCN6CCOCC6)nn45)cc3c2)cn1 | < 100 nM | 100 to 1000 nM
20 | CCc1nn2c(Cc3ccc4ncc(-c5cnn(C)c5)cc4c3)nnc2s1 | < 100 nM | ≤ 100 nM
21 | CNCc1nn2c(Cc3ccc4ncc(-c5cnn(C)c5)cc4c3)nnc2s1 | < 100 nM | ≤ 100 nM
22 | Brc1cnc2ccc(Cc3nnc4sc(CN5CCCC5)nn34)cc2c1 | 100 to 1000 nM | 
23 | CCc1nn2c(Sc3ccc4ncc(-c5cnn(C)c5)cc4c3)nnc2s1 | < 100 nM | 100 to 1000 nM
24 | COCc1nn2c(Cc3ccc4ncc(-c5cnn(C)c5)cc4c3)nnc2s1 | < 100 nM | ≤ 100 nM
25 | CN(C)Cc1nn2c(Cc3ccc4ncc(-c5cnn(C)c5)cc4c3)nnc2s1 | < 100 nM | ≤ 100 nM

Row | SMILES | IC50 [1] | IC50 [2]
26 | Cn1cc(-c2cnc3ccc(Cc4nnc5sc(CNC6CC6)nn45)cc3c2)cn1 | < 100 nM | ≤ 100 nM
27 | CC(C)NCc1nn2c(Cc3ccc4ncc(-c5cnn(C)c5)cc4c3)nnc2s1 | < 100 nM | ≤ 100 nM
28 | Cn1cc(-c2cnc3ccc(Cc4nnc5sc(CNCCO)nn45)cc3c2)cn1 | < 100 nM | 100 to 1000 nM
29 | C[C@@H](O)[C@@H](N)c1nn2c(Cc3ccc4ncc(-c5cnn(C)c5)cc4c3)nnc2s1 | 1000 to 10000 nM | 
30 | C[C@@H](N)c1nn2c(Cc3ccc4ncc(-c5cnn(C)c5)cc4c3)nnc2s1 | < 100 nM | 100 to 1000 nM
31 | Cn1cc(-c2cnc3ccc(Cc4nnc5sc(C(N)Cc6cncn6C)nn45)cc3c2)cn1 (centres unmarked) | 100 to 1000 nM | 
32 | CN[C@H](C)c1nn2c(Cc3ccc4ncc(-c5cnn(C)c5)cc4c3)nnc2s1 | 100 to 1000 nM | 100 to 1000 nM
33 | Cn1cc(-c2cnc3ccc(Cc4nnc5sc([C@H](N)CC6CCCCC6)nn45)cc3c2)cn1 | < 100 nM | 100 to 1000 nM
34 | Cn1cc(-c2cnc3ccc(Cc4nnc5sc(C6CCC6)nn45)cc3c2)cn1 | < 100 nM | ≤ 100 nM
35 | Cn1cc(-c2cnc3ccc(Cc4nnc5sc(CNCC(F)(F)F)nn45)cc3c2)cn1 | < 100 nM | ≤ 100 nM
36 | CCNCc1nn2c(Cc3ccc4ncc(-c5cnn(C)c5)cc4c3)nnc2s1 | < 100 nM | 100 to 1000 nM
37 | Cn1cc(-c2cnc3ccc(Cc4nnc5sc([C@@H](N)CC6CC6)nn45)cc3c2)cn1 | < 100 nM | 
38 | CS(=O)(=O)c1cccc(-c2cnc3nnc(Cc4ccc5ncccc5c4)n3c2)c1 | > 10000 nM | 
39 | NCc1ccc(-c2cnc3nnc(Cc4ccc5ncccc5c4)n3c2)cc1 | > 10000 nM | 
40 | Cc1nn2c(Cc3c(F)cc4ncc(-c5cnn(C)c5)cc4c3F)nnc2s1 | < 100 nM | ≤ 100 nM
41 | COCCc1nn2c(Sc3ccc4ncc(-c5cnn(C)c5)cc4c3)nnc2s1 | < 100 nM | ≤ 100 nM
42 | CN(C)Cc1nn2c(Cc3c(F)cc4ncc(Br)cc4c3F)nnc2s1 | 1000 to 10000 nM | 
43 | OCc1nn2c(Cc3ccc4ncc(Br)cc4c3)nnc2s1 | > 10000 nM | 
44 | Cn1cc(-c2cnc3ccc(Cc4nnc5nccnn45)cc3c2)cn1 [3-(1-Methyl-1H-pyrazol-4-yl)-6-[1,2,4]triazolo[4,3-b][1,2,4]triazin-3-ylmethyl-quinoline] | < 100 nM | ≤ 100 nM
45 | c1ccc(-c2cn3c(Cc4ccc5ncccc5c4)nnc3s2)cc1 [6-(6-Phenyl-thiazolo[2,3-c][1,2,4]triazol-3-ylmethyl)-quinoline] | 1000 to 10000 nM | 
46 | Cn1cc(-c2nn3c(Cc4ccc5ncccc5c4)cnc3s2)cn1 [6-[2-(1-methyl-1H-pyrazol-4-yl)-imidazo[2,1-b][1,3,4]thiadiazol-5-ylmethyl]-quinoline] | < 100 nM | 100 to 1000 nM
47 | Cn1cc(-c2nn3c(Cc4ccc5ncccc5c4)nnc3s2)cn1 [6-[6-(1-Methyl-1H-pyrazol-4-yl)-[1,2,4]triazolo[3,4-b][1,3,4]thiadiazol-3-ylmethyl]-quinoline] |  | 100 to 1000 nM
48 | Cn1cc(-c2nn3c(Sc4ccc5ncccc5c4)nnc3s2)cn1 [6-[6-(1-Methyl-1H-pyrazol-4-yl)-[1,2,4]triazolo[3,4-b][1,3,4]thiadiazol-3-ylsulfanyl]-quinoline] | < 100 nM | 100 to 1000 nM
49 | Cn1cc(-c2cnc3ccc(Cc4nnc5sc(-c6cccnc6)nn45)cc3c2)cn1 [drawing 184] |  | ≤ 100 nM
50 | Cn1cc(-c2cnc3ccc(Cc4nnc5sc(-c6cccnc6)nn45)cc3c2)cn1 [drawing 217] | < 100 nM | 
